# Tests used:
# [1] = molecular target: T1, 5-LO (Homo sapiens, UniProt P09917); assay: Test a) in vitro human blood challenged with calcium ionophore A23187, LTB4 radioimmunoassay; type: cell-based; conditions: heparinised human blood
# T1 construct: incubating a test compound with heparinised human blood, prior to challenge with the calcium ionophore A23187; endogenous in cells; host or cells: blood cells in heparinised human whole blood
# T1 sequence (P09917 1-674): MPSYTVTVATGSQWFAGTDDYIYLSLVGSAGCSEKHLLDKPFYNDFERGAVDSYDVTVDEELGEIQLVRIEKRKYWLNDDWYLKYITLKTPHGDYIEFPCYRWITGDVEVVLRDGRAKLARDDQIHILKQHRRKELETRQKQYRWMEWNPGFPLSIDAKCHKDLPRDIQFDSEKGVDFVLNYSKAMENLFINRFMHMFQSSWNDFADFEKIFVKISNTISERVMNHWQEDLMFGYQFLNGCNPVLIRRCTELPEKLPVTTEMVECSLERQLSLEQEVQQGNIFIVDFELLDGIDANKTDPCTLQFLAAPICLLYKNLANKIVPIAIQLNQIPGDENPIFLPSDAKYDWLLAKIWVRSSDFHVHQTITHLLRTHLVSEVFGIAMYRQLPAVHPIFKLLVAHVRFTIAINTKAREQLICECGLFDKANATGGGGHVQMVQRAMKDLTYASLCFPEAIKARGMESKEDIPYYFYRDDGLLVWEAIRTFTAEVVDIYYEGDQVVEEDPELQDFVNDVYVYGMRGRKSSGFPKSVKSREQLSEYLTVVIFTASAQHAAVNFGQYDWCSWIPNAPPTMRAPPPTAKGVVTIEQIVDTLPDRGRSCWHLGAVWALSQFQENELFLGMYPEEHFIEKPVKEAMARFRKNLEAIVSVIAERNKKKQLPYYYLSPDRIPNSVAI
# Experimental: a) An in vitro assay system involving incubating a test compound with heparinised human blood, prior to challenge with the calcium ionophore A23187 and then indirectly measuring the inhibitory effects on 5-LO by assaying the amount of LTB4 using specific radioimmunoassays described by Carey and Forder (Prostaglandins, Leukotrienes Med., 1986, 22, 57; Prostaglandins, 1984, 28, 666; Brit. J. Pharmacol., 1985, 84, 34P) which involves the use of a protein-LTB4 conjugate produced using the procedure of Young et alia (Prostaglandins, 1983, 26(4), 605-613). The effects of a test compound on the enzyme cyclooxygenase (which is involved in the alternative metabolic pathway for arachidonic acid and gives rise to prostaglandins, thromboxanes and related metabolites) may be measured at the same time using the specific radioimmunoassay for thromboxane B2 (TxB2) described by Carey and Forder (see above). This test provides an indication of the effects of a test compound against 5-LO and also cyclooxygenase in the presence of blood cells and proteins. It permits the selectivity of the inhibitory effect on 5-LO or cyclooxygenase to be assessed.
# [2] = molecular target: T2, 5-LO (Rattus norvegicus, UniProt P12527); assay: Test c) in vivo zymosan-induced liberation of LTB4 within an air pouch of male rats; conditions: 3 h; test c), oral
# T2 construct: liberation of LTB4 induced by zymosan within an air pouch generated within the subcutaneous tissue of the back of male rats; from tissue; host or cells: live male rats, zymosan-inflamed subcutaneous air pouch (endogenous enzyme)
# T2 sequence (P12527 1-673): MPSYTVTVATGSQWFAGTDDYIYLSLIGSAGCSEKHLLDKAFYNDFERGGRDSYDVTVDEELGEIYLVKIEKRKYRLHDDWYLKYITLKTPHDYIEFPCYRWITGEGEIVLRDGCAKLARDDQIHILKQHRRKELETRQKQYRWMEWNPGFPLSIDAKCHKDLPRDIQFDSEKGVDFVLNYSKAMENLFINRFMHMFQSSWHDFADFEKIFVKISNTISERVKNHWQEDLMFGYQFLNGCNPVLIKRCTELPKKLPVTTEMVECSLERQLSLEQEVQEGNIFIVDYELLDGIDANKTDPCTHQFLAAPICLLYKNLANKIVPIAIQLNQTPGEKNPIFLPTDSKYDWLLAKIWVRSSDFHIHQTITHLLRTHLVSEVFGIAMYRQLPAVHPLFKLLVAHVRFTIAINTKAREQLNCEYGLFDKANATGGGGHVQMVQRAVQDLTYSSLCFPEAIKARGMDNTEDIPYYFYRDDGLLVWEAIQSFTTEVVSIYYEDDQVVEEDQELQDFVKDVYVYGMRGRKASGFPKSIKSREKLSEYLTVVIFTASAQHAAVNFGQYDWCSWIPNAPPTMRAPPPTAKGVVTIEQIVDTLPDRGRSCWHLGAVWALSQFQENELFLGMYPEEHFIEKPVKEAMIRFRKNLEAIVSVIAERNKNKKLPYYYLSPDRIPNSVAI
# Experimental: c) An in vivo system involving measuring the effects of a test compound administered orally against the liberation of LTB4 induced by zymosan within an air pouch generated within the subcutaneous tissue of the back of male rats. The rats are anaesthetised and air pouches are formed by the injection of sterile air (20 ml). A further injection of air (10 ml) is similarly given after 3 days. At 6 days after the initial air injection the test compound is administered (usually orally as the suspension produced when a solution of the test compound in dimethylsulphoxide is added to hydroxypropylmethylcellulose), followed by the intrapouch injection of zymosan (1 ml of a 1% suspension in physiological saline). After 3 hours the rats are killed, the air pouches are lavaged with physiological saline, and the specific radioimmunoassay described above is used to assay LTB4 in the washings. This test provides an indication of inhibitory effects against 5-LO in an inflammatory milieu.
IC50 [1] [nM],ED50 [2] [mg/kg],Structure (SMILES)
140,1,"COC1(c2cc(F)cc(Sc3ccc(C(F)(F)c4ccc(F)cc4)cc3)c2)CCOCC1 [4-[5-fluoro-3-(4-(4-fluoro-alpha,alpha-difluorobenzyl)phenylthio)phenyl]-4-methoxytetrahydropyran]"
40,2,COC1(c2cccc(Sc3ccc(Cc4ccc(F)cc4)cc3)c2)CCOCC1 [4-[3-(4-(4-fluorobenzyl)phenylthio)phenyl]-4-methoxytetrahydropyran]

# Source: patent US5225438A, “Aryl derivatives” (Imperial Chemical Industries PLC, priority 1990, dated 1993)
